Literature values in patent US20090092657A1, “Amino acid combinant omega oil aphrodisiac” (priority 2007, published 2009).

Columns and labels:
[1] = 1989 outbreak traced to L-tryptophan supplied by Showa Denko KK
[2] = for erection after injection: injected directly into the corpus cavernosum using a hypodermic needle; for duration of erection: intracavernosal injection, appropriate dose
[3] = buccal administration of 100 I.U. three times a day for 14 days

| SMILES | erection after injection [2] | also measured |
| --- | --- | --- |
| N[C@@H](Cc1c[nH]c2ccccc12)C(=O)O [L-tryptophan] |  | cases of eosinophilia-myalgia syndrome (EMS) in the outbreak [1]: 1500 cases; deaths in the EMS outbreak [1]: at least 37 deaths |
| CC(COc1ccccc1)N(CCCl)Cc1ccccc1 (centres unmarked) [phenoxybenzamine] | caused erection | duration of erection [2]: unrelenting erection lasting for hours |
| Cc1ccc(N(CC2=NCCN2)c2cccc(O)c2)cc1 [phentolamine] | caused erection |  |
| CC[C@H](C)[C@@H]1NC(=O)[C@H](Cc2ccc(O)cc2)NC(=O)[C@@H](N)CSSC[C@@H](C(=O)N2CCC[C@H]2C(=O)N[C@@H](CC(C)C)C(=O)NCC(N)=O)NC(=O)[C@H](CC(N)=O)NC(=O)[C@H](CCC(N)=O)NC1=O [oxytocin] |  | improvement of impotentia erectionis, patients improved of patients treated [3]: 12 of the 16 |
| CCN(CC)CCOC(=O)C(Cc1cccc2ccccc12)CC1CCCO1 (mixture of isomers) [naftidrofuryl] | caused erection |  |
| CN(C)CCCN1c2ccccc2CCc2ccccc21 [imipramine] | caused erection |  |
| CC(=O)Oc1cc(C(C)C)c(OCCN(C)C)cc1C [thymoxamine] | caused erection |  |
| COc1ccc(Cc2nccc3cc(OC)c(OC)cc23)cc1OC [papaverine] | caused erection | duration of erection [2]: unrelenting erection lasting for hours |
